This note sets out measurements from US7122686B2, “Analogs of discodermolide and dictyostatin-1, intermediates therefor and methods of synthesis thereof” (University of Pittsburgh, priority 2002, dated 2006).

Entries after “also recorded” stand apart in the source; their conditions may differ. Bounds are passed on as bounds.

The subject of one assay is tubulin. Kind of assay: Tubulin polymerization (microtubule stabilizing activity). The class given is biochemical, bovine. The following applies: in comparison to 10 μM paclitaxel; turbidity, cold-induced disassembly. On the procedure:
Tubulin Polymerization.[32] Tubulin assembly was followed in a Beckman-Coulter 7400 spectrophotometer, equipped with an electronic Peltier temperature controller, reading absorbance (turbidity) at 350 nm. Reaction mixtures (0.25 mL final volume) contained tubulin (final concentration 10 μM; 1 mg/mL), monosodium glutamate (0.8 M from a stock solution adjusted to pH 6.6 with HCl), DMSO (final volume 4% v/v), and differing concentrations of test agent where indicated. Reaction mixtures without test agent were cooled to 0° C. and added to cuvettes held at 0.25–0.5° C. in the spectrophotometer. Test agent in DMSO was then rapidly mixed in the reaction mixture. Each run contained one positive control (paclitaxel, 10 μM final concentration) and one negative control (DMSO only). Baselines were established at 0.25–2.5° C. and temperature was rapidly raised to 30° C. (in approximately 1 min) and held there for 20 min.

The test system of the next assay is PC3 (prostate). Kind of assay: Cell growth inhibition, PC3 (prostate). The format is cell-based. The following applies: Homo sapiens, 72 h, read-out: GI50 (μM) PC3 (prostate). On the procedure:
(§1) Cell Growth Inhibition[34] Cells were plated (500–2000 cells/well depending on the cell line) in 96-well microplates, allowed to attach and grow for 48 h, then treated with vehicle (4% DMSO, a concentration that allowed doubling times of 24 h or less) or test agent (50, 10, 2, 0.4 and 0.08 μM for the new agents; 0.001, 0.005, 0.010, 0.020 and 0.100 μM for paclitaxel and discodermolide) for the given times. One plate consisted of cells from each line used for a time zero cell number determination. The other plates in a given determination contained eight wells of control cells, eight wells of medium and each agent concentration tested in quadruplicate. Cell numbers were obtained spectrophotometrically (absorbance at 490 nm minus that at 630 nm) in a Dynamax plate reader after treatment with 3-(4,5-dimethylthiazol-2-yl)-5-(3-carboxymethoxyphenyl)-2-(4-sulfophenyl)-2H-tetrazolium (MTS) using phenazine methanesulfonate as the electron acceptor. After initial screening with the above 5-fold dilutions, fifty percent growth inhibitory concentration (GI50) values were determined for each agent by repeating the screen using 2-fold dilutions (five concentrations) centered on the initial estimated GI50 concentration, again in quadruplicate.

For assay [1], the system named is paclitaxel binding site on tubulin. The experiment in a line: Paclitaxel binding site inhibition assay ([3H]paclitaxel displacement). On the set-up: species or system bovine. On the procedure:
Paclitaxel binding site inhibition assay. A stock solution of [^3H]paclitaxel (26.8 μM, 16.2 Ci/mmol), obtained from the NCI, was prepared in 37% (v/v) DMSO. The test agents were prepared in 25% (v/v) DMSO-0.75 M monosodium glutamate (prepared from a 2M stock solution adjusted to pH 6.6 with HCl). The radiolabeled paclitaxel and test agents, as indicated in terms of final concentrations, were mixed in equal volumes and warmed to 37° C. A reaction mixture (50 μL) containing 0.75 M monosodium glutamate, 4.0 μM tubulin, and 40 μM ddGTP (a non-hydrolyzable analog of GTP) was prepared and incubated at 37° C. for 30 min to preform microtubules. An equivalent volume of drug mixture with [^3H]paclitaxel was added to preformed polymer and incubated for 30 min at 37° C. Bound [^3H]paclitaxel was separated from free drug by centrifugation of the reaction mixtures at 14000 rpm for 20 min at room temperature. Non-specific binding was determined by addition of a 12-fold excess of docetaxel. Radioactive counts from the supernatant (50 μL) were determined by scintillation spectrometry. Bound [^3H]paclitaxel was calculated from the following: total paclitaxel added to each reaction mixture minus the paclitaxel present in the supernatant (free drug). The % bound values were normalized to the control values with no inhibitor added.

Another assay concerns 2008 (ovarian). The experiment in a line: Cell growth inhibition, 2008 (ovarian). The format is cell-based, human. The following applies: for GI50: Homo sapiens, 72 h, read-out: GI50 (μM) 2008 (ovarian); for 50% growth inhibitory concentration: human ovarian cancer cells. The method, then: as §1
A further assay deals with MDA-MB231 (breast). The experiment in a line: Cell growth inhibition, MDA-MB231 (breast). The format is cell-based, human. The following applies: for GI50: Homo sapiens, MDA-MB-231, 72 h, read-out: GI50 (μM) MDA-MB231 (breast); for 50% growth inhibitory concentration: human breast cancer cells. The method, then: as §1

Consider `C=C/C=C\[C@H](C)[C@H](OC(N)=O)[C@@H](C)[C@H](O)CC/C=C\[C@H](C)[C@H](O)[C@@H](C)/C=C\CC[C@@H]1OC(=O)[C@H](C)[C@@H](OCOC)[C@H]1C` [Compound 41, Carbamic acid, (1S,2S,3R,6Z,8S,9S,10S,11Z)-3,9-dihydroxy-14-[(2S,3S,4S,5R)-4-methoxymethoxy-3,5-dimethyl-6-oxotetrahydropyran-2-yl]-2,8,10-trimethyl-1-[(1S,2Z)-1-methylpenta-2,4-dienyl]tetradeca-6,11-dienyl ester], for which, in the assay on tubulin, the “Tubulin polymerization-inducing properties (FIGS. 6A-D, in words)” value is “more rapid polymer-inducing and cold-resistant properties; also recorded: most potent among these analogs”. Besides, the GI50 in the assay with PC3 (prostate) turned out to be 1.8 ± 0.9 µM; in the assay with 2008 (ovarian) it was 0.65 ± 0.25 µM; with MDA-MB231 (breast), 0.87 ± 0.21 µM. For the same compound, in assay [1] (2-fold molar excess of test agent), the “Displacement of [3H]paclitaxel from microtubules (in words)” value was “better than paclitaxel and at almost the same potency as discodermolide”. In addition, the “50% growth inhibitory concentration” value with MDA-MB231 (breast) is recorded as “submicromolar”.
In the case of `C=C/C=C\[C@H](C)[C@H](OC(N)=O)[C@@H](C)[C@H](O)CC/C=C\[C@H](C)[C@H](O)[C@@H](C)/C=C\CC[C@@H]1O[C@@H](OC)[C@H](C)[C@@H](OCOC)[C@H]1C` [Compound 42, Carbamic acid, (1S,2S,3R,6Z,8S,9S,10S,11Z)-3,9-dihydroxy-14-[(2S,3S,4S,5R,6R)-6-methoxy-4-methoxymethoxy-3,5-dimethyltetrahydropyran-2-yl]-2,8,10-trimethyl-1-[(1S,2Z)-1-methylpenta-2,4-dienyl]tetradeca-6,11-dienyl ester], the “Tubulin polymerization-inducing properties (FIGS. 6A-D, in words)” value in the assay with tubulin is “more rapid polymer-inducing and cold-resistant properties”. The concentration for 50% growth inhibition (GI50) in the assay with PC3 (prostate) stood at 15 ± 3 µM; in the assay on 2008 (ovarian) it was 4.7 ± 0.6 µM; in the assay on MDA-MB231 (breast) it was 3.4 ± 0.8 µM.
Take `C=CC=C[C@H](C)[C@H]1OC(=O)CCCCCCCCC=C[C@H](C)[C@H](O)[C@@H](C)C=CCC[C@@H](O)[C@H]1C` [Compound 43, (1S,13S,14S,15S,20R,21R,22R)-14,20-Dihydroxy-13,15,21-trimethyl-22-(1-methylpenta-2,4-dienyl)-oxacyclodocosa-11,16-dien-2-one]: the “50% growth inhibitory concentration” value in the assay with 2008 (ovarian) and in the assay with MDA-MB231 (breast) was 15 to 30 µM each time.
Regarding `C=CC=C[C@H](C)[C@@H](O)[C@H](C)[C@H](O)CCC=C[C@H](C)[C@@H](O)[C@@H](C)C=CCCCCCCCCCO` [Compound 47, (12S,13S,14S,19R,20R,21R,22S)-12,14,20,22-Tetramethylhexacosa-10,15,23,25-tetraene-1,13,19,21-tetraol], the “50% growth inhibitory concentration” value in the assay on 2008 (ovarian) and in the assay on MDA-MB231 (breast) was 15 to 30 µM in each case.
Turning to `C=CC=C[C@H](C)[C@@H](O)[C@H](C)[C@H](O)CCC=C[C@H](C)[C@@H](O)[C@@H](C)C=CCCCCCCCCC(=O)OC` [Compound 48, (12S,13S,14S,19R,20R,21R,22S)-13,19,21-Trihydroxy-12,14,20,22-tetramethylhexacosa-10,15,23,25-tetraenoic acid methyl ester], the “50% growth inhibitory concentration” value with 2008 (ovarian) and with MDA-MB231 (breast) was 15 to 30 µM in each case.
Regarding `C=CC=C[C@H](C)[C@@H](O)[C@H](C)[C@H](O)CCC=C[C@H](C)[C@@H](O)[C@@H](C)C=CCCCCCCCCC(=O)O` [Compound 49, (12S,13S,14S,19R,20R,21R,22S)-13,19,21-Trihydroxy-12,14,20,22-tetramethylhexacosa-10,15,23,25-tetraenoic acid], the “50% growth inhibitory concentration” value in the assay on 2008 (ovarian) and with MDA-MB231 (breast) was above 50 µM in each case.
Regarding `C=CC=CC(C)[C@H]1OC(=O)C=CC=C[C@@H](C)[C@H](O)CCC=C[C@H](C)[C@H](O)[C@@H](C)C=CCC[C@@H](O)[C@H]1C` (stereo partly drawn) [Compound 54, (7R,8R,13S,14S,15S,20R,21R,22R,23S)-8,14,20-Trihydroxy-7,13,15,21-tetramethyl-22-(1-methylpenta-2,4-dienyl)-oxacyclodocosa-3,5,11,16-tetraen-2-one], the “[3H]paclitaxel displacement potency relative to discodermolide” value in assay [1] ([3H]paclitaxel stoichiometrically bound to microtubules) is listed as “about ⅓”. Moreover, the “50% growth inhibitory concentration” value in the assay with 2008 (ovarian) and with MDA-MB231 (breast) was “about 1 μM” in each case.
With `C=C/C=C\[C@H](C)[C@H](OC(N)=O)[C@@H](C)[C@H](O)[C@@H](C)C/C(C)=C\[C@H](C)[C@@H](O)[C@@H](C)/C=C\[C@@H](O)C[C@@H]1OC(=O)[C@H](C)[C@@H](O)[C@H]1C` [discodermolide, (+)-discodermolide], in the assay on tubulin, the “Tubulin polymerization-inducing properties (FIGS. 6A-D, in words)” value is on record as “superior to paclitaxel”.

By GI50 is commonly meant the concentration at which growth is held to half of that of the control.
